We go through three molecules from patent US20240197728A1, “METHODS AND PHARMACEUTICAL COMPOSITIONS FOR TREATING REFRACTORY EPILEPSY” (INSERM (INSTITUT NATIONAL DE LA SANTÉ ET DE LA RECHERCHE …, priority 2021, published 2024).

Molecules are shown by their SMILES.

Data set [1] concerns OSR1. As to the kind of experiment: Immunoblot of OSR1 phosphorylation and expression in hippocampo-cortical slices. The class given is cell-based, rat. The conditions noted are these: 10 μM WNK463, 2 h; vs DMSO. How it is done:
(§1) For all experiments on hippocampal cultures, neurons were pre-incubated for 2 hours with either DMSO, PCPZ or CLP257 in a CO2 incubator set at 37° C. Drugs were added directly to the culture medium. For electrophysiology experiments, neurons were also recorded in presence of these drugs in the bath. For biochemistry experiments on rat hippocampo-cortical slices, slices were incubated with either DMSO (vehicle), CLP257, PCPZ, WNK463 or sodium orthovanadate for 2 hours in interface chambers set at 37° C. For human tissue experiments, slices were pre-incubated with either DMSO, CLP257 or PCPZ for 2 hours in interface chambers set at 37° C. and then also recorded in presence of these compounds.
(§2) 8-weeks old Sprague Dawley male rats were anesthetized by intraperitoneal ketamine/xylazine injection (120/10 mg/kg) and perfused transcardially with ice-cold (0-4° C.), oxygenated solution (O2/CO2 95/5%), containing (in mM): N-methyl-d-glucamine 93, KCl 2.5, NaH2PO4 1.2, NaHCO330, HEPES 20, D-glucose 20, ascorbic acid 5, sodium pyruvate 3, MgSO4 10 and CaCl2) 0.5 (300-310 mOsm, pH7.4). Brains were removed and transverse hippocampo-cortical slices (400 m thick) were prepared in the same solution using a vibratome (HM650V, Microm). Slices were then incubated for 2-hours with DMSO, the KCC2 enhancers (CLP257, PCPZ, WNK43) or sodium orthovanadate in an interface chamber containing artificial cerebrospinal fluid (ACSF) composed of (in mM): D-glucose 10, KCl 3.5, NaHOC3 26, NaH2PO4 1.25, NaCl 126, CaCl2) 1.6 and MgCl2 1.2 (290 mOsm), equilibrated with 5% CO2 in 95% 02. After the treatments, slices were washed with cold PBS, instantaneously frozen with liquid nitrogen and stored at −80° C.
(§3) Slices were mechanically lysed on ice, using a 2 mL Dounce, in a buffer containing (in mM): Tris/HCl, pH 7.5 50, EGTA 1, EDTA 1, sodium orthovanadate 1, sodium-B-glycerophosphate 10, sodium fluoride 50, sodium pyrophosphate 5, sucrose 270, benzamidine 1, phenylmethylsulfonyl fluoride 2, Triton […], (v/v) 2-mercaptoethanol 0.1% and protease inhibitors (Roche). After complete homogenization, samples were centrifuged (16,000×g at 4° C. for 10 min) and the supernatant was collected. Protein quantification was done using Pierce BCA Protein Assay kit (Thermo Scientific) with BSA as standard.
Samples were subjected to electrophoresis on polyacrylamide gradient gels (4-12% bis-tris gels) and transferred to nitrocellulose membranes. Membranes were rinsed with TBS-tween solution (TBST; Invitrogen) and blocked with 5% (w/v) skim milk. The membranes were then immunoblotted in 5% (w/v) skim milk in TBST with a primary antibody against KCC2 (rabbit, 07-432; Millipore; 1:1000), or phosphotyrosine (mouse, clone 4G10, Millipore, 1:1000), and a mouse primary antibody against neuron-specific beta-III tubulin overnight at 4° C. (clone 2G10; T8578; Sigma-Aldrich; 1:1000). They were then washed three times with distillated water, three times with TBST-milk solution and incubated for one hour at RT with goat secondary antibodies anti-rabbit IRDye 800 (1:3000; LI-COR), goat anti-mouse IRDye 700 (1:3000; LI-COR) or donkey anti-sheep DyLight 800 (1:3000; Rockland). Membranes were then washed again with TBST three times and one time with TBS. Fluorescence was detected and the relative intensities of immunoblot bands were determined using Odyssey infrared imaging system (LI-COR Bioscience). […]

For data set [2], the system named is SPAK. Description: Immunoblot of SPAK phosphorylation and expression in hippocampo-cortical slices. The class given is cell-based, rat. The conditions noted are these: 10 μM WNK463, 2 h; vs DMSO. How it is done: as §1, §2, §3
Samples were subjected to electrophoresis on polyacrylamide gradient gels (4-12% bis-tris gels) and transferred to nitrocellulose membranes. Membranes were rinsed with TBS-tween solution (TBST; Invitrogen) and blocked with 5% (w/v) skim milk. […] Fluorescence was detected and the relative intensities of immunoblot bands were determined using Odyssey infrared imaging system (LI-COR Bioscience). […]
Background: Immunoblotting shows a protein as a band on a membrane.

Data set [3] concerns KCC2. Description: Immunoprecipitation/immunoblot of KCC2 phosphorylation and expression in hippocampo-cortical slices. In kind it is cell-based, rat. How it is done:
as §1, §2, §3
The following phosphorylation site-specific antibodies: anti-KCC3A phospho Thr1048 (0.35 mg/ml, sheep, [S0961C] 1st bleed, Dundee), anti-KCC3A phospho Thr 991 (0.26 mg/ml, sheep, [S959C] 1st bleed, Dundee) were first incubated for 30 min at 4° C. with the corresponding non-phosphorylated peptide (10 mg/ml, Dundee).
Phospho-antibodies or anti-KCC2 antibodies (07-432; Millipore) were then coupled with protein-G-Sepharose (4 Fast Flow; Sigma-Aldrich) at a ratio of […] of antibody per 100 μl of beads, for 2 h at 4° C. without agitation. 1.5 mg of clarified cell lysate was incubated with the antibody-coupled bead suspension, overnight at 4° C. under gentle agitation. The supernatant was collected after centrifugation and beads were washed twice with NaCl solution (0.25M NaCl in 1×PBS) and twice with PBS alone. Bound proteins were eluted with 2×LDS sample buffer (Invitrogen) containing 0.5% (v/v) 2-mercaptoethanol and denaturated at 75° C. for 20 min (IP with phospho-antibodies) or 37° C. for 1 h (IP with anti-KCC2 antibodies) before centrifugation (13,000×g at 4° C. for 15-20 min).
Samples were subjected to electrophoresis on polyacrylamide gradient gels (4-12% bis-tris gels) and transferred to nitrocellulose membranes. Membranes were rinsed with TBS-tween solution (TBST; Invitrogen) and blocked with 5% (w/v) skim milk. The membranes were then immunoblotted in 5% (w/v) skim milk in TBST with a primary antibody against KCC2 (rabbit, 07-432; Millipore; 1:1000), or phosphotyrosine (mouse, clone 4G10, Millipore, 1:1000), and a mouse primary antibody against neuron-specific beta-III tubulin overnight at 4° C. (clone 2G10; T8578; Sigma-Aldrich; 1:1000). […]

Data set [4] relates to spontaneous interictal-like discharges (IIDs) in slices from mTLE patients. As to the kind of experiment: Multielectrode array recording of postoperative hippocampal-subicular slices from mTLE patients. In kind it is cell-based, human. The conditions noted are these: 10 μM bumetanide, >10 min application. How it is done: as §1
Patients or their legal guardians gave informed consent to participate in the study. Patients ([…], 3 males, 4 female, age range: 16-54 years) diagnosed with mesial temporal lobe epilepsy with hippocampal sclerosis underwent multimodal preoperative neurological, neurophyschological and psychiatric evaluations as well as video-electroencephalographic recording, magnetic resonance imaging and fluorodeooxyglugose positron emission tomography. Cortectomies were performed at Sainte-Anne Hospital by neurosurgeons B. Devaux and B. Turak and at Pitié-Salpêtriére Hospital by neurosurgeons S. Clemenceau and B. Mathon. Cortical specimens collected in the operating room were immediately transported in ice-cold (0-4° C.), oxygenated solution (O2/CO2 95/5%), containing (in mM): N-methyl-d-glucamine 93, KCl 2.5, NaH2PO4 1.2, NaHCO3 30, HEPES 20, D-glucose 20, ascorbic acid 5, sodium pyruvate 3, MgSO4 10 and CaCl2 0.5 (300-310 mOsm, pH7.4) and transported within 15 minutes to the laboratory. Transverse hippocampal-subicular slices (400 m thick) were prepared in the same solution using a vibratome (HM650V, Microm). They were maintained for 20-30 minutes at 37° C. and then at room temperature in an interface chamber containing artificial cerebrospinal fluid (ACSF) composed of (in mM): D-glucose 10, KCl 3.5, NaHOC3 26, NaH2PO4 1.25, NaCl 126, CaCl2 1.6 and MgCl2 1.2 (290 mOsm), equilibrated with 5% CO2 in 95% 02.
Multielectrode array recordings were performed using a MEA2100 station (Multi Channel Systems) equipped with a 120-microelectrode array chamber (custom 12×10 layout, 30 μm TiN electrodes spaced 1 mm vertical and 1.5 mm horizontal). Slices were maintained in the recording chamber using a home-made platinum-nylon harp and superfused with pre-warmed (37° C.) oxygenated ACSF at a rate of 6 ml/min. Slices were imaged using a video-microscope table (MEA-VMT1, Multi Channel Systems) in order to register the location of electrodes with respect to the slice. Extracellular signals were acquired at a sampling rate of 10 kHz using Multi Channel Experimenter (Multi Channel Systems) and analyzed offline using homemade software (Matlab, The Mathworks).

The target in data set [5] is T1, NKCC1 (Homo sapiens, UniProt P55011).
T1 sequence (P55011 1-1212): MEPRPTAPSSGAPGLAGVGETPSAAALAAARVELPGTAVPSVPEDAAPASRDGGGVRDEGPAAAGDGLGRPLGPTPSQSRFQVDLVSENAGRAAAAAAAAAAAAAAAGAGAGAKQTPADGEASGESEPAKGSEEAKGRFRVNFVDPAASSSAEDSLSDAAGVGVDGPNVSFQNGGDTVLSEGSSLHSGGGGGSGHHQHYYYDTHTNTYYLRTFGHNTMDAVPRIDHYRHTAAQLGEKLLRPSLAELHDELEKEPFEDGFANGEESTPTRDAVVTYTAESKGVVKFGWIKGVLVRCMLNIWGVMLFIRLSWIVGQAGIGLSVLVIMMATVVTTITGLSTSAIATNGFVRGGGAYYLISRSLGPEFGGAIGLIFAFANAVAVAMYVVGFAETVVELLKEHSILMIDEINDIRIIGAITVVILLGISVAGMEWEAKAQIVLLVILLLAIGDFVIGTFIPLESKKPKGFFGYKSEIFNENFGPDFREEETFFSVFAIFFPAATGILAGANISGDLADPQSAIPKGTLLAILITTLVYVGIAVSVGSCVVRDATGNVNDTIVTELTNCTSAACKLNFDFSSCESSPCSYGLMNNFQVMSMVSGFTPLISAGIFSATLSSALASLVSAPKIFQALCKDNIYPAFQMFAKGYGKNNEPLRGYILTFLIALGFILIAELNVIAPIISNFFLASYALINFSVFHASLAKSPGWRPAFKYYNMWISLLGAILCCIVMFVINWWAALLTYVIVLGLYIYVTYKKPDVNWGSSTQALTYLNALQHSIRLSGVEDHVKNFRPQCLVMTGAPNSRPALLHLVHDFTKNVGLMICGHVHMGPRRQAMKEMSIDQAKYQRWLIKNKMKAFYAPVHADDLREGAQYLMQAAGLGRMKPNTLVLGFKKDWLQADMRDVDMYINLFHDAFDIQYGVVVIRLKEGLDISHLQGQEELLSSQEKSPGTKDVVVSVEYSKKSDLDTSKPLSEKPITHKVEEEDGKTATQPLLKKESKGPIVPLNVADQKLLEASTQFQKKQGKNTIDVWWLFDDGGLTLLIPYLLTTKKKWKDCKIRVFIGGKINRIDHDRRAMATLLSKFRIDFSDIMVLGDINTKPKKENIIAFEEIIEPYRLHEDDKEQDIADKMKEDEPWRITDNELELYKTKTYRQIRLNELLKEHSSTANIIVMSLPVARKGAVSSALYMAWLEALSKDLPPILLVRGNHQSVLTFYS
The conditions noted are these: NEMO trial, neonatal seizures; cited from earlier work.

With `CC(C)(C)NC(=O)c1cncn1C1CCN(c2ccc(-c3nnc(C(F)(F)F)o3)cn2)CC1` [WNK463], the “change of OSR1 phosphorylation (S325)” value in data set [1] was −81.00±5.56%. For the same molecule, the “change of SPAK phosphorylation (S327)” value in data set [2] was −84.10±4.57%. Besides, the “change of total KCC2 expression” value in data set [3] (10 μM WNK463, 2 h, slices, vs DMSO) was −7.64±13.00%. Further, in data set [3] (10 μM WNK463, 2 h, vs DMSO), the “change of KCC2 phosphorylation at S940” value was −14.40±4.67%, the “change of KCC2 phosphorylation at T906” value is reported as −13.70±12.5% and the “change of KCC2 phosphorylation at T1007” value is recorded as −78.702±3.27%.

Take `CCCCNc1cc(C(=O)O)cc(S(N)(=O)=O)c1Oc1ccccc1` [bumetanide]: the “slices in which the amplitude of IIDs was reduced or IIDs abolished” value in data set [4] is recorded as 3 of 4. The “hearing loss in surviving patients” value in data set [5] is reported as 3/11.

`[Na+].[Na+].[Na+].[O]=[V]([O-])([O-])[O-]` [sodium orthovanadate]: the “change of tyrosine phosphorylation of KCC2” value in data set [3] (sodium orthovanadate 200 μM in H2O (FIG. 4 legend), 2 h) was “+89.10±45.40%”.
